Test results published in ChEMBL document CHEMBL1150043, “Pachyclavulariolides M-R, six novel diterpenoids from a Taiwanese soft coral Pachyclavularia violacea” (2003).
≈ marks a conversion by molar mass, not a printed value.

Tested on: P388
Test: Cytotoxicity against mouse P388 cells by MTT method
Format: functional
Details: read-out: ED50 (the source's name)

CC(=O)O[C@@H]1[C@@H](OC(C)=O)C2=C(C)C(=O)O[C@]2(O)C[C@@]2(C)O[C@@H]2CC[C@H](C)[C@H]2CC[C@]1(C)O2 [PACHYCLAVULARIOLIDE M]
EC50: 3.2 µg/mL (≈ 6.86 µM)
